According to patent US10266497B2 (ABIDE THERAPEUTICS, INC., priority 2017, dated 2019):

molecular target: T1, MAGL (Mus musculus, UniProt O35678); experiment: In vitro competitive activity-based protein profiling, MAGL, mouse; settings: read-out: MAGL % inh. 1 μM (mouse)
T1 sequence (O35678 1-303): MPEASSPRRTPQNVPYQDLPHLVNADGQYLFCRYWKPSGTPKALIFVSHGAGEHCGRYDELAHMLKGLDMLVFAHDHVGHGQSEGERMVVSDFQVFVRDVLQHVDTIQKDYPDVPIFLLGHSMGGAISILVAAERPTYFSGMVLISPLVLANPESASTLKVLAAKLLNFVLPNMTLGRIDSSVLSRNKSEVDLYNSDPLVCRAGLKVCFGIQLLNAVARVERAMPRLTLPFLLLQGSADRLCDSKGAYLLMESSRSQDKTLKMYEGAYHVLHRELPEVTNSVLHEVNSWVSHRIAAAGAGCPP

Compound	inhibition at 1 µM
O=C(O)c1ccn(C(=O)N2CCC3(CCN(Cc4ccc(Cl)c(N5CCCC5)c4)C3)CC2)n1 [Example 343, 1-(2-(4-chloro-3-(pyrrolidin-1-yl)benzyl)-2,8-diazaspiro[4.5]decane-8-carbonyl)-1H-pyrazole-3-carboxylic acid]	0 to 25%
NC(=O)c1ccn(C(=O)N2CCC3(CCCN3Cc3cc4ccc(C(F)(F)F)cc4s3)CC2)n1 [Example 22, 1-(1-((6-(Trifluoromethyl)benzo[b]thiophen-2-yl)methyl)-1,8-diazaspiro[4.5]decane-8-carbonyl)-1H-pyrazole-3-carboxamide]	> 75%
Cc1cc(CN2CCCC23CCN(C(=O)n2ccc(C(=O)O)n2)CC3)cc(C(F)(F)F)c1 [Example 303, 1-(1-(3-methyl-5-(trifluoromethyl)benzyl)-1,8-diazaspiro[4.5]decane-8-carbonyl)-1H-pyrazole-3-carboxylic acid]	> 75%
CNC(=O)c1ccn(C(=O)N2CCN(Cc3ccc(Cl)cc3)CC2)n1 [Example 420, 1-(4-(4-chlorobenzyl)piper-azine-1-carbonyl)-N-methyl-1H-pyrazole-3-carboxamide]	> 75%
NC(=O)c1ccn(C(=O)N2CCC3(CCN(Cc4cccc(C(F)(F)F)c4)C3)C2)n1 (stereo not drawn) [Example 429, 1-(7-(3-(trifluoromethyl)benzyl)-2,7-diazaspiro[4.4]non-ane-2-carbonyl)-1H-pyrazole-3-carboxamide]	> 75%
CNC(=O)c1ccn(C(=O)N2CC3CN(Cc4cccc(C(F)(F)F)c4)CC3C2)n1 (stereo not drawn) [Example 432, N-methyl-1-(5-(3-(trifluoromethyl)benzyl)octahydro-pyrrolo[3,4-c]pyrrole-2-carbonyl)-1H-pyrazole-3-carboxamide]	> 75%
NC(=O)c1ccn(C(=O)N2CCC3(CCN(Cc4ccc(Cl)cc4)C3)C2)n1 (stereo not drawn) [Example 421, 1-(7-(4-chlorobenzyl)-2,7-diazaspiro[4.4]non-ane-2-carbonyl)-1H-pyrazole-3-carboxamide]	> 75%
CC(C)COc1cccc(O[C@H]2C[C@@H]3CN(C(=O)n4ccc(C(=O)O)n4)C[C@@H]3C2)c1Cl [Example 448, 1-(trans-5-(2-chloro-3-isobutoxyphenoxy)octahydrocyclopenta [c]pyrrole-2-carbonyl)-1H-pyrazole-3-carboxylic acid]	> 75%
CNC(=O)c1ccn(C(=O)N2CC3CN(Cc4cc(Cl)ccc4Cl)CC3C2)n1 (stereo not drawn) [Example 430, 1-(5-(2,5-dichlorobenzyl)octa-hydropyrrolo[3,4-c]pyrrole-2-carbonyl)-N-methyl-1H-pyrazole-3-carboxamide]	> 75%
CNC(=O)c1ccn(C(=O)N2CCC3(CCN(Cc4cc(Cl)ccc4Cl)C3)C2)n1 (stereo not drawn) [Example 428, 1-(7-(2,5-dichlorobenzyl)-2,7-diazaspiro[4.4]non-ane-2-carbonyl)-N-methyl-1H-pyrazole-3-carboxamide]	> 75%
CNC(=O)c1ccn(C(=O)N2CC3CN(Cc4ccc(C(F)(F)F)cc4)CC3C2)n1 (stereo not drawn) [Example 425, N-methyl-1-(5-(4-(trifluoromethyl)benzyl)octahydro-pyrrolo[3,4-c]pyrrole-2-carbonyl)-1H-pyrazole-3-carboxamide]	> 75%
O=C(O)c1ccn(C(=O)N2CCC3(CCCN3Cc3cc(Cl)cc(N4CCCC4)c3)CC2)n1 [Example 344, 1-(1-(3-chloro-5-(pyrrolidin-1-yl)benzyl)-1,8-diazaspiro[4.5]decane-8-carbonyl)-1H-pyrazole-3-carboxylic acid]	> 75%
C[C@H]1CC(N(C)Cc2ccc(C(F)(F)F)cc2N2CCCC2)CCN1C(=O)n1cc(Cl)c(C(=O)O)n1 (stereo partly drawn) [Example 33, 4-Chloro-1-((2S)-2-methyl-4-(methyl(2-(pyrrolidin-1-yl)-4-(trifluoromethyl)benzyl)amino)piperidine-1-carbonyl)-1H-pyrazole-3-carboxylic Acid]	50 to 75%
NC(=O)c1ccn(C(=O)N2CCN(Cc3cccc(C4(O)CCOCC4)c3)CC2)n1 [Example 237, 1-(4-(3-(4-hydroxytetrahydro-2H-pyran-4-yl)benzyl)piperazine-1-carbonyl)-1H-pyrazole-3-carboxamide]	> 75%
CNC(=O)c1ccn(C(=O)N2CCN(Cc3cccc(Oc4ccccc4)c3)CC2)n1 [Example 423, N-methyl-1-(4-(3-phenoxybenzyl)piperazine-1-carbonyl)-1H-pyrazole-3-carboxamide]	> 75%

Results, then the compound that gave them:

inhibition at 1 µM	Compound
> 75%	O=C(O)c1nn(C(=O)N2CCN(Cc3cccc(C(F)(F)F)c3N3CCOCC3)CC2)cc1Cl [Example 449, 4-chloro-1-(4-(2-morpholino-3-(trifluoromethyl)benzyl)piperazine-1-carbonyl)-1H-pyrazole-3-carboxylic acid]
> 75%	COc1cccc(O[C@H]2C[C@@H]3CN(C(=O)n4ccc(C(=O)O)n4)C[C@@H]3C2)c1Cl [Example 445, 1-(trans-5-(2-chloro-3-methoxyphenoxy)octahydrocyclopenta [c]pyrrole-2-carbonyl)-1H-pyrazole-3-carboxylic acid]
> 75%	CNC(=O)c1ccn(C(=O)N2CC3CN(Cc4cc(Cl)cc(C(F)(F)F)c4)CC3C2)n1 (stereo not drawn) [Example 437, 1-(5-(3-chloro-5-(trifluoromethyl)benzyl)octahydro-pyrrolo[3,4-c]pyrrole-2-carbonyl)-N-methyl-1H-pyrazole-3-carboxamide]
> 75%	Cc1cn(C(=O)N2CCN(Cc3cccc(Oc4ccc(Cl)cc4)c3)C[C@@H]2C)nc1C(=O)O [Example 442, (S)-1-(4-(3-(4-chlorophenoxy)benzyl)-2-methylpiperazine-1-carbonyl)-4-methyl-1H-pyrazole-3-carboxylic acid]
> 75%	O=C(O)c1nn(C(=O)N2CCN(Cc3ccc(C(F)(F)F)cc3N3CCCC3)CC2)cc1Cl [Example 443, 4-chloro-1-(4-(2-(pyrrolidin-1-yl)-4-(trifluoromethyl)benzyl)piperazine-1-carbonyl)-1H-pyrazole-3-carboxylic acid]
> 75%	CNC(=O)c1ccn(C(=O)N2C[C@H]3C[C@@H](N(C)Cc4ccccc4C(F)(F)F)C[C@H]3C2)n1 [Example 434, N-methyl-1-(cis-5-(methyl(2-(trifluoromethyl)benzyl)amino)octa-hydrocyclopenta[c]pyrrole-2-carbonyl)-1H-pyrazole-3-carboxamide]
> 75%	NC(=O)c1ccn(C(=O)N2CCC3(CCN(Cc4ccc(N5CCOCC5)cc4C(F)(F)F)C3)C2)n1 (stereo not drawn) [Example 436, 1-(7-(4-morpholino-2-(trifluoromethyl)benzyl)-2,7-diazaspiro[4.4]non-ane-2-carbonyl)-1H-pyrazole-3-carboxamide]
> 75%	CNC(=O)c1ccn(C(=O)N2C[C@H]3C[C@@H](N(C)Cc4ccc(C(F)(F)F)cc4)C[C@H]3C2)n1 [Example 439, N-methyl-1-(cis-5-(methyl(4-(trifluoromethyl)benzyl)amino)octa-hydrocyclopenta[c]pyrrole-2-carbonyl)-1H-pyrazole-3-carboxamide]
> 75%	CNC(=O)c1ccn(C(=O)N2CCC3(CCN(Cc4cc(Cl)cc(C(F)(F)F)c4)C3)C2)n1 (stereo not drawn) [Example 435, 1-(7-(3-chloro-5-(trifluoromethyl)benzyl)-2,7-diazaspiro[4.4]non-ane-2-carbonyl)-N-methyl-1H-pyrazole-3-carboxamide]
> 75%	O=C(O)c1ccn(C(=O)N2C[C@H]3C[C@H](Oc4cccc(-c5cscn5)c4Cl)C[C@H]3C2)n1 [Example 446, 1-(trans-5-(2-chloro-3-(thiazol-4-yl)phenoxy)octa-hydrocyclopenta[c]pyrrole-2-carbonyl)-1H-pyrazole-3-carboxylic acid]
> 75%	CNC(=O)c1ccn(C(=O)N2CC3CN(Cc4ccc(N5CCOCC5)cc4C(F)(F)F)CC3C2)n1 (stereo not drawn) [Example 440, N-methyl-1-(5-(4-morpholino-2-(trifluoromethyl)benzyl)octahydro-pyrrolo[3,4-c]pyrrole-2-carbonyl)-1H-pyrazole-3-carboxamide]

molecular target: T2, MAGL (Homo sapiens, UniProt Q99685); experiment: In vitro competitive activity-based protein profiling, MAGL, human; settings: read-out: MAGL % inh. 1 μM (human)
T2 sequence (Q99685 1-303): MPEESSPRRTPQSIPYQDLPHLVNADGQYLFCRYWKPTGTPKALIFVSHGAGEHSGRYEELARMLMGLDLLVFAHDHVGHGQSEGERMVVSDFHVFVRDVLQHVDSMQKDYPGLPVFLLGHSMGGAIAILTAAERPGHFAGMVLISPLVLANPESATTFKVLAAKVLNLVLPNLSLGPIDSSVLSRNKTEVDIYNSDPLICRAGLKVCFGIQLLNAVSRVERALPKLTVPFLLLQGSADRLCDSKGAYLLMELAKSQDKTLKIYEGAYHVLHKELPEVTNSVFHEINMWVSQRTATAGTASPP

inhibition at 1 µM	Compound
25 to 50%	O=C(O)c1ccn(C(=O)N2CCC3(CCN(Cc4ccc(Cl)c(N5CCCC5)c4)C3)CC2)n1 [Example 343, 1-(2-(4-chloro-3-(pyrrolidin-1-yl)benzyl)-2,8-diazaspiro[4.5]decane-8-carbonyl)-1H-pyrazole-3-carboxylic acid]
> 75%	NC(=O)c1ccn(C(=O)N2CCC3(CCCN3Cc3cc4ccc(C(F)(F)F)cc4s3)CC2)n1 [Example 22, 1-(1-((6-(Trifluoromethyl)benzo[b]thiophen-2-yl)methyl)-1,8-diazaspiro[4.5]decane-8-carbonyl)-1H-pyrazole-3-carboxamide]

same assay, conditions: read-out: MAGL % inh. (human) at 10 uM

inhibition at 10 µM	Compound
> 75%	O=C(O)c1ccn(C(=O)N2C[C@H]3C[C@H](OCc4cccc(-c5cscn5)c4Cl)C[C@H]3C2)n1 [Example 447, 1-(trans-5-((2-chloro-3-(thiazol-4-yl)benzyl)oxy)octa-hydrocyclopenta[c]pyrrole-2-carbonyl)-1H-pyrazole-3-carboxylic acid]
> 75%	O=C(O)c1ccn(C(=O)N2C[C@H]3C[C@H](NCc4cccc(-c5ccccc5)c4)C[C@H]3C2)n1 [Example 273, 1-(trans-5-(([1,1′-biphenyl]-3-ylmethyl)amino)octahydrocyclopenta [c]pyrrole-2-carbonyl)-1H-pyrazole-3-carboxylic acid]
